From patent publication US20160038468A1 (priority 2013, published 2016)
Read-outs that look alike come from different tables or passages of the source.

Columns and labels:
Atopobium vaginae = assay: Agar dilution MIC (CLSI), Atopobium vaginae vaginal isolates; format: cell-based; details: for Number of strains with indicated MIC: 62 samples
Mobiluncus spp = assay: Agar dilution MIC (CLSI), Mobiluncus spp vaginal isolate; format: cell-based; details: read-out: Minimal Inhibitory Concentration (MIC)
Prevotella bivia = assay: Agar dilution MIC (CLSI), Prevotella bivia vaginal isolates; format: cell-based; details: for MIC: read-out: Minimal Inhibitory Concentration (MIC)
Prevotella timonensis = assay: Agar dilution MIC (CLSI), Prevotella timonensis vaginal isolates; format: cell-based; details: for MIC: read-out: Minimal Inhibitory Concentration (MIC); for Number of strains with indicated MIC: 33 samples
Anaerococcus tetradius = assay: Agar dilution MIC (CLSI), Anaerococcus tetradius vaginal isolates; format: cell-based; details: for MIC: read-out: Minimal Inhibitory Concentration (MIC); for Number of strains with indicated MIC: 21 samples
[1] = test system: bacterial vaginosis (BV) related organisms; assay: Agar dilution MIC (CLSI), 411 vaginal BV related organisms overall; format: cell-based
Procedure: The method used was the reference method approved by the Clinical and Laboratory Standards Institute (CLSI). The CLSI is considered the gold standard for determining the lowest concentration of an antimicrobial agent that prevents growth of a microorganism in an agar dilution susceptibility test referred to as the minimal inhibitory concentration (MIC).
A total of 411 unique microbial isolates recovered from the human vagina of US women from a period of time from 2009 to 2012 were tested for antimicrobial susceptibility by the agar dilution method. A total of 13 analytical runs were conducted in order to analyze all of the samples. See, Example 1.
A total of 411 unique microbial isolates recovered from the human vagina from 2009-2012 were tested for antimicrobial susceptibility by the agar dilution method. This procedure followed the guidelines of the Clinical Laboratory Standard Institute reference agar dilution method (CLSI).
The MIC endpoint was read on the test plate. The MIC is that concentration at which a marked reduction occurs in the appearance of growth on the test plate as compared to the amount that of growth on the control plate. Examples of a marked change in growth include a change from confluent growth to a haze, less than 10 tiny colonies, or one to three normal sized colonies. The illustrated figures found in the CLSI manual should be used as a guide.

[2] = test system: Clostridium difficile, ATCC 700057; details: agar dilution testing, from CLSI Table 5; cited from earlier work
Lactobacilli = details: pathogens: Gardnerella vaginalis, Mobiluncus spp, Bacteroides bivius-disiens; cited from earlier work
[3] = Fannyhessea vaginae, # tested 62
[4] = Hoylesella timonensis, # tested 33
[5] = Anaerococcus tetradius, # tested 21

CO[C@H]1/C=C/O[C@@]2(C)Oc3c(C)c(O)c4c(O)c(c5c(nc6cc(C)ccn65)c4c3C2=O)NC(=O)/C(C)=C\C=C\[C@H](C)[C@H](O)[C@@H](C)[C@@H](O)[C@@H](C)[C@H](OC(C)=O)[C@@H]1C [Rifaximin]
33 (100) μg/ml: Susceptible (Prevotella timonensis; number (%) of isolates, # tested 33)
10: Number of strains with indicated MIC (Atopobium vaginae; MIC 0.0075 μg/ml)
0.03 µg/mL: MIC (Mobiluncus spp) | MIC (Prevotella timonensis; Hoylesella timonensis, isolate 601370 13) | MIC (Prevotella timonensis; Hoylesella timonensis, isolate 601414 O) | MIC (Anaerococcus tetradius; Anaerococcus tetradius, isolate 601369V 12)
3.75 to 60 ng/mL: MIC Range (Prevotella timonensis; # tested 33)
0.00375 µg/mL: MIC (Prevotella timonensis; Hoylesella timonensis, isolate 301212 10) | MIC (Anaerococcus tetradius; Anaerococcus tetradius, isolate 601221V 12)
equal to, or even higher than: inhibitory action (MIC50 and MIC90) against Lactobacilli compared with action against pathogenic bacteria (Lactobacilli)
3.75 to 125 ng/mL: MIC Range (Anaerococcus tetradius; # tested 21)
2: Number of strains with indicated MIC (Prevotella timonensis; MIC 0.0075 μg/ml) | Number of strains with indicated MIC (Prevotella timonensis; MIC 0.03 μg/ml)
0.06 µg/mL: MIC (Prevotella timonensis; Hoylesella timonensis, isolate 601167 13) | MIC (Anaerococcus tetradius; Anaerococcus tetradius, isolate 601098V T) | MIC (Anaerococcus tetradius; Anaerococcus tetradius, isolate 601103V 21) | MIC (Anaerococcus tetradius; Anaerococcus tetradius, isolate 601202V 11) | MIC (Anaerococcus tetradius; Anaerococcus tetradius, isolate 601212V 14) | MIC (Anaerococcus tetradius; Anaerococcus tetradius, isolate 601222V 15) | MIC (Anaerococcus tetradius; Anaerococcus tetradius, isolate 601242V 17) | MIC (Anaerococcus tetradius; Anaerococcus tetradius, isolate 601256V 9) | MIC (Anaerococcus tetradius; Anaerococcus tetradius, isolate 601287V V) | MIC (Anaerococcus tetradius; Anaerococcus tetradius, isolate 601326V H) | MIC (Anaerococcus tetradius; Anaerococcus tetradius, isolate 601340V 25) | MIC (Anaerococcus tetradius; Anaerococcus tetradius, isolate 601342V N) | MIC (Anaerococcus tetradius; Anaerococcus tetradius, isolate 601368V 42) | MIC (Anaerococcus tetradius; Anaerococcus tetradius, isolate 601379V 25) | MIC (Anaerococcus tetradius; Anaerococcus tetradius, isolate 601401V T) | MIC (Anaerococcus tetradius; Anaerococcus tetradius, isolate 601450V 22) | MIC50 (Anaerococcus tetradius; [5]) | MIC90 (Anaerococcus tetradius; [5])
3.75 to 250 ng/mL: MIC Range (Atopobium vaginae; # tested 62)
0.015 µg/mL: MIC90 (Atopobium vaginae; [3]) | MIC (Prevotella timonensis; Hoylesella timonensis, isolate 601088 15) | MIC (Prevotella timonensis; Hoylesella timonensis, isolate 601093 24) | MIC (Prevotella timonensis; Hoylesella timonensis, isolate 601097 S) | MIC (Prevotella timonensis; Hoylesella timonensis, isolate 601098 B) | MIC (Prevotella timonensis; Hoylesella timonensis, isolate 601157 19) | MIC (Prevotella timonensis; Hoylesella timonensis, isolate 601170 13) | MIC (Prevotella timonensis; Hoylesella timonensis, isolate 601175 J) | MIC (Prevotella timonensis; Hoylesella timonensis, isolate 601178 19) | MIC (Prevotella timonensis; Hoylesella timonensis, isolate 601214 A) | MIC (Prevotella timonensis; Hoylesella timonensis, isolate 601226 C) | MIC (Prevotella timonensis; Hoylesella timonensis, isolate 601234 B) | MIC (Prevotella timonensis; Hoylesella timonensis, isolate 601245 16) | MIC (Prevotella timonensis; Hoylesella timonensis, isolate 601252 B) | MIC (Prevotella timonensis; Hoylesella timonensis, isolate 601255 17) | MIC (Prevotella timonensis; Hoylesella timonensis, isolate 601266 18) | MIC (Prevotella timonensis; Hoylesella timonensis, isolate 601278 12) | MIC (Prevotella timonensis; Hoylesella timonensis, isolate 601281 22) | MIC (Prevotella timonensis; Hoylesella timonensis, isolate 601287 H) | MIC (Prevotella timonensis; Hoylesella timonensis, isolate 601293 13) | MIC (Prevotella timonensis; Hoylesella timonensis, isolate 601311 B) | MIC (Prevotella timonensis; Hoylesella timonensis, isolate 601367 E) | MIC (Prevotella timonensis; Hoylesella timonensis, isolate 601388 S) | MIC (Prevotella timonensis; Hoylesella timonensis, isolate 601401 J) | MIC (Prevotella timonensis; Hoylesella timonensis, isolate 601411 S) | MIC (Prevotella timonensis; Hoylesella timonensis, isolate 601422 39) | MIC (Prevotella timonensis; Hoylesella timonensis, isolate 601429 11) | MIC (Prevotella timonensis; Hoylesella timonensis, isolate 601459 21) | MIC50 (Prevotella timonensis; [4]) | MIC90 (Prevotella timonensis; [4]) | MIC (Anaerococcus tetradius; Anaerococcus tetradius, isolate 601305V J) | MIC (Anaerococcus tetradius; Anaerococcus tetradius, isolate 601429V 15) | MIC (Anaerococcus tetradius; Anaerococcus tetradius, isolate 602375V 22)
15: Number of strains with indicated MIC (Anaerococcus tetradius; MIC 0.06 μg/ml)
3: Number of strains with indicated MIC (Anaerococcus tetradius; MIC 0.015 μg/ml)
3.75 ng/mL: MIC50 (Atopobium vaginae; [3])
0.5 µg/mL: MIC (Prevotella bivia; Prevotella bivia, isolate 601202 21) | MIC (Prevotella bivia; Prevotella bivia, isolate 601367 M) | MIC (Prevotella bivia; Prevotella bivia, isolate 601449 E) | MIC90 (Prevotella bivia; Prevotella bivia, # tested 34)
0.125 to 1 µg/mL: MIC Range (Prevotella bivia; # tested 34)
5: Number of strains with indicated MIC (Atopobium vaginae; MIC 0.015 μg/ml)
27: Number of strains with indicated MIC (Prevotella timonensis; MIC 0.015 μg/ml)
0.0075 µg/mL: MIC (Prevotella timonensis; Hoylesella timonensis, isolate 601080 5) | MIC (Prevotella timonensis; Hoylesella timonensis, isolate 601194 9B)
0.25 µg/mL: MIC (Prevotella bivia; Prevotella bivia, isolate 601213 9A) | MIC (Prevotella bivia; Prevotella bivia, isolate 601214 B) | MIC (Prevotella bivia; Prevotella bivia, isolate 601255 10) | MIC (Prevotella bivia; Prevotella bivia, isolate 601261 C) | MIC (Prevotella bivia; Prevotella bivia, isolate 601283 20) | MIC (Prevotella bivia; Prevotella bivia, isolate 601293 22) | MIC (Prevotella bivia; Prevotella bivia, isolate 601340 31) | MIC (Prevotella bivia; Prevotella bivia, isolate 601374 A1) | MIC (Prevotella bivia; Prevotella bivia, isolate 601378 B) | MIC (Prevotella bivia; Prevotella bivia, isolate 601379 19) | MIC (Prevotella bivia; Prevotella bivia, isolate 601388 T) | MIC (Prevotella bivia; Prevotella bivia, isolate 601389 10) | MIC (Prevotella bivia; Prevotella bivia, isolate 601389 J) | MIC (Prevotella bivia; Prevotella bivia, isolate 601409 V) | MIC (Prevotella bivia; Prevotella bivia, isolate 601410 12) | MIC (Prevotella bivia; Prevotella bivia, isolate 601429 1) | MIC (Prevotella bivia; Prevotella bivia, isolate 601433 19) | MIC (Prevotella bivia; Prevotella bivia, isolate 601453 A) | MIC (Prevotella bivia; Prevotella bivia, isolate 601455 D1) | MIC (Prevotella bivia; Prevotella bivia, isolate 601458 16) | MIC50 (Prevotella bivia; Prevotella bivia, # tested 34)
34 (100) μg/ml: Susceptible (Prevotella bivia; number (%) of isolates, # tested 34)
3.9 to 15.6 ng/mL: Acceptable Range of MIC for control strain [2]
1: Number of strains with indicated MIC (Atopobium vaginae; MIC 0.06 μg/ml) | Number of strains with indicated MIC (Prevotella timonensis; MIC 0.00375 μg/ml) | Number of strains with indicated MIC (Prevotella timonensis; MIC 0.06 μg/ml) | Number of strains with indicated MIC (Anaerococcus tetradius; MIC 0.00375 μg/ml) | Number of strains with indicated MIC (Anaerococcus tetradius; MIC 0.03 μg/ml) | Number of strains with indicated MIC (Anaerococcus tetradius; MIC […])
more efficacious: efficacy against all pathogen vaginal bacteria judged from MICs, in comparison to metronidazole and clindamycin ([1]; in particular when Prevotella strains are present)
1 µg/mL: MIC (Prevotella bivia; Prevotella bivia, isolate 601355 B)
62 strains: number of Atopobium vaginae strains against which the agent had activity (Atopobium vaginae)
43: Number of strains with indicated MIC (Atopobium vaginae; MIC 0.00375 μg/ml)
0.125 µg/mL: MIC (Prevotella bivia; Prevotella bivia, isolate 601096 25) | MIC (Prevotella bivia; Prevotella bivia, isolate 601166 M) | MIC (Prevotella bivia; Prevotella bivia, isolate 601203 5) | MIC (Prevotella bivia; Prevotella bivia, isolate 601209 A1) | MIC (Prevotella bivia; Prevotella bivia, isolate 601212 9) | MIC (Prevotella bivia; Prevotella bivia, isolate 601241 13) | MIC (Prevotella bivia; Prevotella bivia, isolate 601243 15) | MIC (Prevotella bivia; Prevotella bivia, isolate 601285 14) | MIC (Prevotella bivia; Prevotella bivia, isolate 601305 H) | MIC (Prevotella bivia; Prevotella bivia, isolate 601392 14) | MIC (Anaerococcus tetradius; Anaerococcus tetradius, isolate 601175V I)
higher susceptibility: susceptibility of pathogenic strains in respect to clindamycin ([1]; Prevotella, Anaerococcus, Finegoldia, Peptoniphilus and Atopobium strains) | susceptibility of pathogenic strains in respect to metronidazole ([1]; Prevotella, Anaerococcus, Peptoniphilus, Atopobium, Megasphera and Mobiluncus strains)
